Source: patent publication US10822376B2, “Biologically active peptides” (Baxalta Incorporated, priority 2008, dated 2020)
Values after ≈ are worked out from the molar mass of the structure shown. *1 amine or outer side, *2 acyl side, *3 side chain or, on linkers, in order; H or OH if unused. Where a SMILES comes first, the peptide text is derived from it. Bridges are numbered along the chain shown (N, C = ends). [ ]: non-standard residue; d: D form. The star is where a group is joined. X2 = NCCCC[C@H](N)C(=O)NCCCOCCOCCOCCCN*; Suc = O=C(CCC(=O)[*:2])[*:1]; X3 = CC(=O)NCCCOCCOCCOCCCN*

How the values were obtained:
Plasma stability = settings: human
Description: Half-life of compounds in human or mouse plasma, or percentage of compound remaining after an incubation in human or mouse plasma, is determined as follows. In the experimental procedure, test compound concentrations are 5 μM, prepared from test compound stock solutions of 10 mM in DMSO. Propantheline is used as a standard. […] All of the samples are incubated in a water bath at 37° C. […] After a chosen duration of incubation (generally at t=60 min) each sample is mixed with a further 500 μl acetonitrile. The samples are mixed on a vortex mixer for 30 s and placed on ice for 10 min and collected for centrifugation. Samples are centrifuged at 20 000 g for 10 min at 4° C. 500 μl supernatant is transferred into a new 1.5 ml Eppendorf tube and an equal volume of acetonitrile is added. The sample is mixed again for 30 s using a vortex mixer. After a second centrifugation step (20 000 g, 10 min, 4° C.) 250 μl of the supernatant is transferred into HPLC glass vials for HPLC-MS analysis. Conditions for performing HPLC are as follows: Injection-volume is set to 20 μl. Temperature is set to 25° C. A linear gradient from 95:5 to 5:95 water:acetonitrile both containing 0:05% trifluoroacetic acid (TFA) (v/v) is applied at a flow rate of 0.3 ml/min for 10 min. The PDA-detector is scanning from 210-400 nm.

physchem = settings: for solubility kinetic: pH 7.4
Description: Aqueous solubility is measured in PBS at pH 7.4 either in an assay provided by Cerep (France, Catalog ref. 900-11a) or according to the following protocol. The aim of this procedure is to determine the solubility of a drug candidate (analyte) in a buffer, by estimating the saturation concentration of the candidate in the buffer using HPLC. A known concentration of the candidate in an organic solvent is used as a standard. A stock solution of the test compound in DMSO must be prepared as the initial step. […] DMSO stock-solutions are diluted to a final concentration of 50 μM with DMSO (100% reference-solution) and buffer (test-solution) to provide a minimum volume of 500 μL of each. Both solutions are shaken at 25° C. at 950 rpm in an Eppendorf “thermomixer comfort” for at least 60 min. The suspension is centrifuged at 22 330 g for at least two min and 100 μL of the supernatant is transferred into polypropylene-inserts placed in glass vials and closed by snap-ring caps. Alternatively the solutions can be prepared in microtiter plates with half of the previously described starting solvent volume. For the determination of the solubility all samples are analyzed by HPLC in triplicate. Injection volume is at least 10 μL. The obtained data are analyzed by “Chemstation-software” (Agilent, Waldbronn, Germany). The peaks from the analyses of the organic solutions are integrated and the arithmetic mean is reported as “AUC 1” (reference area of known amount injected at the HPLC). […] The ratio of the mean “AUC 2” and “AUC 1” is calculated and thus the percentage of the dissolved amount of compound in buffer is obtained and solubility can be reported in μM.

[1] = tested on: human FVIII inhibited plasma; test: Defined Intrinsic Thrombin Generation Assay (DITGA, triggered by FXIa and phospholipids); type: biochemical; settings: for Activity in the Defined Intrinsic Thrombin Generation Assay: summary
From the text: The intrinsic pathway of thrombin generation may be assayed in a thrombin generation assay by including FXIa and phospholipids. In such an assay, which is similar to an activated partial thromboplastin time (aPTT) test, thrombin generation is solely directed through the intrinsic pathway, and is FVIII dependent. A suitable assay is the Defined Intrinsic Thrombin Generation Assay described below. Alternatively, by employing low concentrations of TF and phospholipids instead of FXIa and phospholipids, thrombin is generated by both the extrinsic (tissue factor) and the intrinsic pathways. This form of the thrombin generation assay is the more physiologic one, as both thrombin generation pathways are involved; it is partially FVIII dependent. A suitable assay is the Defined Dual-Pathway Thrombin Generation Assay.
The Defined Intrinsic Thrombin Generation Assay is performed as follows. FVIII activity of human plasma is inhibited by incubating (2 hours, 37° C.) 40 μl of human normal plasma with 10 μl heat inactivated anti-human FVIII plasma raised in goat (600 BU/ml, 6 hours incubated at 56° C.). […] Instead of FVIII-inhibited plasma, FVIII inhibitor patient plasma or several depleted plasmas can be used. The micro-plate is immediately put into a GENios Plus (Tecan) or Safire 2 (Tecan) fluorescence reader and the fluorescence signal (ex 340 nm/em 440 nm) is followed kinetically by reading the plate every 21 seconds.
For calculation of activity equivalent units experiments are performed with dilutions of Factor Eight Inhibitor Bypassing Agent (FEIBA, Baxter AG), Immunate (human FVIII, purified plasma derived) reference standard (Baxter AG) or Recombinate standard (human FVIII, purified recombinant, Baxter AG). A linear fit of the logarithm of FEIBA (FVIII) concentration plotted against thrombin generation time at peak thrombin results in a standard curve. With this curve FEIBA (FVIII) equivalent activity is calculated for a defined peptide concentration. […] Thus, where a concentration of 100 μM is given, the actual concentration in the final assay volume in 40 μM.
Compounds were screened using the “Defined intrinsic thrombin generation assay” in which thrombin generation was quantified in vitro in FVIII-inhibited human plasma in the presence of Factor XIa and phospholipid vesicles. Further compounds were screened in the above assay, and in the “Defined dual-pathway thrombin generation assay” using tissue factor and phospholipids instead of Factor XIa and phospholipids, as described in the specific description.
Various concentrations of each peptide were tested in the defined intrinsic thrombin generation assay using human FVIII inhibited plasma.

remaining at 0.5 h, 5 μM (Plasma stability) | solubility kinetic (physchem) | solubility (physchem; pH 7.4, Solubility in PBS pH 7.4) | SMILES | Thrombin peak time given as FEIBA equivalent activity ([1]; peptide 12.5 μM) | Thrombin peak time given as FEIBA equivalent activity ([1]; peptide 25 μM) | Thrombin peak time given as FEIBA equivalent activity ([1]; peptide 50 μM) | Thrombin peak time given as FEIBA equivalent activity ([1]; peptide 100 μM) | Thrombin peak time given as FEIBA equivalent activity ([1]; peptide 200 μM) | Activity in the Defined Intrinsic Thrombin Generation Assay [1]
112% | 174 µM (≈ 307 µg/mL) |  | CSCC[C@H]1NC(=O)[C@@H](Cc2ccc(O)cc2)NC(=O)[C@H](NC(=O)CCC(=O)NCCCOCCOCCOCCCNC(C)=O)CSSC[C@H](C(=O)N[C@H](Cc2ccc(O)cc2)C(=O)N[C@H](CCC(=O)O)C(N)=O)NC(=O)[C@@H](CC(=O)O)NC(=O)[C@@H](Cc2ccc(O)cc2)NC(=O)[C@@H](Cc2c[nH]c3ccccc23)NC(=O)[C@@H](Cc2ccccc2)NC1=O [Peptide B05, Ac-TTDS-(cymfwydc)-ye-NH2] ({X3-Suc}-[dC][dY][dM][dF][dW][dY][dD][dC][dY][dE]-NH2; disulfide 1-8) | 126 mU/ml | 152 mU/ml | 270 mU/ml | 649 mU/ml | 1089 mU/ml | possess activity
93% | 48 µM (≈ 88.8 µg/mL) | ≥ 25 µM | CSCC[C@H]1NC(=O)[C@@H](Cc2ccc(O)cc2)NC(=O)[C@H](NC(=O)CCC(=O)NCCCOCCOCCOCCCNC(=O)[C@@H](N)CCCCN)CSSC[C@H](C(=O)N[C@H](Cc2ccc(O)cc2)C(=O)N[C@H](CCC(=O)O)C(N)=O)NC(=O)[C@@H](CC(=O)O)NC(=O)[C@@H](Cc2ccc(O)cc2)NC(=O)[C@@H](Cc2c[nH]c3ccccc23)NC(=O)[C@@H](Cc2ccccc2)NC1=O [Peptide B06, K-TTDS-(cymfwydc)-ye-NH2] ({X2-Suc}-[dC][dY][dM][dF][dW][dY][dD][dC][dY][dE]-NH2; disulfide 1-8) | 95 mU/ml | 157 mU/ml | 172 mU/ml | 378 mU/ml | 902 mU/ml | possess activity
